{
  "source": "paper PMC11189555",
  "about": "“Aryl amino acetamides prevent Plasmodium falciparum ring development via targeting the lipid-transfer protein PfSTART1” (Nature Communications, 2024)",
  "key": {"[1]": {"tested_on": "PopD-D7 M-833 resistant clone (PfSTART1 N309K)", "experiment": "Growth inhibition assay (72 h, LDH activity)", "assay_type": "cell-based, Plasmodium falciparum", "description": "(§1) The drug was then removed, and parasites were allowed to recover. Another cycle of drug treatment (3 μM M-833) was then resumed. The resistant lines were cloned out by limiting dilution (diluting the culture into a 96-well plate to achieve an average of ~0.3 parasites per well), prior to growth inhibition assays and genomic DNA (gDNA) extraction (DNeasy Blood and Tissue kit (Qiagen)[18].\n(§2) Parasite growth assays with inhibitory compounds were performed as per[11] and are fully described in the Supplementary Information. […]\n(§3) Growth inhibition assays. Synchronised ring-stage parasites (0.3-0.6% parasitemia, 2% haematocrit) were grown for 72 h in a serial-dilution of the compound under […]\n(§4) and compound 4. Note that M-833 was first purchased from MolPort (MolPort -002-267-916) then made in-house at WEHI: the differences observed in EC50s across experiments are attributed to the different batches of M -833. For some experiments, 0, 0.25 or 2.5 mM of glucosamine (GlcN) was also added. Experiments were set up in technical duplicates or triplicates. Following a freeze -thaw cycle, lactate dehydrogenase (LDH) activity was assessed as an indicator of parasite growt h 5. 30 μL of parasite culture was incubated for 30 min in the dark with 75 μL Malstat mixture (0.1 M Tris pH 9.0, 20 g/L lactic acid, pH 7.5, 0.2% Triton-X100, 0.5 g/L acetylpyridine adenine dinucleotide (APAD, Sigma), 200 μg/mL nitroblue tetrazolium (NBT; Sigma), 1 μg/mL phenozine ethosulfate (PES; Sigma)). Absorbance was then measured at 650 nm, transformed using the formula below, plotted against the logarithm of the concentrations, and a non-linear regression (log(inhibitor) vs. response, variable slope) was calculated using GraphPad Prism to assess the half-inhibitory […]\n(§5) Growth inhibition % = (1 − average(sample)− average(uRBC)) ∗ 100 […]\n(§6) The DMSO samples were also used to assess growth of parasite in the presence of 0.25 and 2.5 mM GlcN (normalised by DMSO in 0 mM GlcN). […]"}, "[2]": {"tested_on": "PopE-F10 M-833 resistant clone (PfSTART1 N330K)", "experiment": "Growth inhibition assay (72 h, LDH activity)", "assay_type": "cell-based, Plasmodium falciparum", "parameters": "sample/DMSO: scale not given here", "description": "as §1, §2, §3, §4, §5, §6"}},
  "data": [
    {"smiles": "CN(C(=O)C(C)(C)Nc1ccc(Cl)c(S(=O)(=O)N2CCOCC2)c1)c1ccc(F)c(Cl)c1", "note": "[compound 4]", "values": [
      {"measurement": "EC50", "setting": "[1]; Plasmodium falciparum, Supplementary Table 1, PopD-D7 (N309K), 72 h, read-out: EC50", "value": 15.7, "unit": "µM"},
      {"measurement": "resistance of the line compared with 3D7", "setting": "[1]; PopD-D7 (N309K), Fig 4B", "value": "No change in EC50"},
      {"measurement": "sample/DMSO", "setting": "[1]; PopD-D7, 0.00152416 uM, biological replicate 3", "value": -12.3682},
      {"measurement": "sample/DMSO", "setting": "[1]; PopD-D7, 0.00304832 uM, biological replicate 1", "value": -15.0464},
      {"measurement": "sample/DMSO", "setting": "[1]; PopD-D7, 0.00457247 uM, biological replicate 3", "value": -16.5856},
      {"measurement": "sample/DMSO", "setting": "[1]; PopD-D7, 0.00914495 uM, biological replicate 1", "value": -23.9863},
      {"measurement": "sample/DMSO", "setting": "[1]; PopD-D7, 0.0137174 uM, biological replicate 3", "value": -19.1403},
      {"measurement": "sample/DMSO", "setting": "[1]; PopD-D7, 0.0274348 uM, biological replicate 1", "value": -36.3947},
      {"measurement": "sample/DMSO", "setting": "[1]; PopD-D7, 0.0411523 uM, biological replicate 3", "value": -26.0746},
      {"measurement": "sample/DMSO", "setting": "[1]; PopD-D7, 0.078125 uM, biological replicate 2", "value": -26.6126},
      {"measurement": "sample/DMSO", "setting": "[1]; PopD-D7, 0.0823045 uM, biological replicate 1", "value": -40.9868},
      {"measurement": "sample/DMSO", "setting": "[1]; PopD-D7, 0.123457 uM, biological replicate 3", "value": -30.0892},
      {"measurement": "sample/DMSO", "setting": "[1]; PopD-D7, 0.15625 uM, biological replicate 2", "value": -24.0527},
      {"measurement": "sample/DMSO", "setting": "[1]; PopD-D7, 0.246914 uM, biological replicate 1", "value": -42.7943},
      {"measurement": "sample/DMSO", "setting": "[1]; PopD-D7, 0.3125 uM, biological replicate 2", "value": -25.1299},
      {"measurement": "sample/DMSO", "setting": "[1]; PopD-D7, 0.37037 uM, biological replicate 3", "value": -34.7932},
      {"measurement": "sample/DMSO", "setting": "[1]; PopD-D7, 0.625 uM, biological replicate 2", "value": -6.501},
      {"measurement": "sample/DMSO", "setting": "[1]; PopD-D7, 0.740741 uM, biological replicate 1", "value": -38.9839},
      {"measurement": "sample/DMSO", "setting": "[1]; PopD-D7, 1.11111 uM, biological replicate 3", "value": -37.8751},
      {"measurement": "sample/DMSO", "setting": "[1]; PopD-D7, 1.25 uM, biological replicate 2", "value": 3.536},
      {"measurement": "sample/DMSO", "setting": "[1]; PopD-D7, 2.22222 uM, biological replicate 1", "value": -23.9863},
      {"measurement": "sample/DMSO", "setting": "[1]; PopD-D7, 2.5 uM, biological replicate 2", "value": 14.2567},
      {"measurement": "sample/DMSO", "setting": "[1]; PopD-D7, 3.33333 uM, biological replicate 3", "value": -28.5888},
      {"measurement": "sample/DMSO", "setting": "[1]; PopD-D7, 5 uM, biological replicate 2", "value": 26.676},
      {"measurement": "sample/DMSO", "setting": "[1]; PopD-D7, 6.66667 uM, biological replicate 1", "value": 9.624},
      {"measurement": "sample/DMSO", "setting": "[1]; PopD-D7, 10 uM, biological replicate 2", "value": 49.8923},
      {"measurement": "sample/DMSO", "setting": "[1]; PopD-D7, 10 uM, biological replicate 3", "value": 18.8159},
      {"measurement": "sample/DMSO", "setting": "[1]; PopD-D7, 20 uM, biological replicate 1", "value": 64.3869},
      {"measurement": "sample/DMSO", "setting": "[1]; PopD-D7, 20 uM, biological replicate 2", "value": 82.347},
      {"measurement": "Fold change compared to 3D7", "setting": "[1]; Supplementary Table 1, EC50 on PopD-D7 vs 3D7", "value": 1.6, "unit": "fold"},
      {"measurement": "EC50", "setting": "[2]; Plasmodium falciparum, 72 h, Supplementary Table 1, PopE-F10 (N330K)", "value": 13.8, "unit": "µM"},
      {"measurement": "resistance of the line compared with 3D7", "setting": "[2]; PopE-F10 (N330K), Fig 4B", "value": "No change in EC50"},
      {"measurement": "sample/DMSO", "setting": "[2]; PopE-F10, 0.00152416 uM, biological replicate 3", "value": -10.997},
      {"measurement": "sample/DMSO", "setting": "[2]; PopE-F10, 0.00304832 uM, biological replicate 1", "value": -14.4828},
      {"measurement": "sample/DMSO", "setting": "[2]; PopE-F10, 0.00457247 uM, biological replicate 3", "value": -14.249},
      {"measurement": "sample/DMSO", "setting": "[2]; PopE-F10, 0.00914495 uM, biological replicate 1", "value": -25.5172},
      {"measurement": "sample/DMSO", "setting": "[2]; PopE-F10, 0.0137174 uM, biological replicate 3", "value": -22.0582},
      {"measurement": "sample/DMSO", "setting": "[2]; PopE-F10, 0.0274348 uM, biological replicate 1", "value": -44.0394},
      {"measurement": "sample/DMSO", "setting": "[2]; PopE-F10, 0.0411523 uM, biological replicate 3", "value": -25.9307},
      {"measurement": "sample/DMSO", "setting": "[2]; PopE-F10, 0.078125 uM, biological replicate 2", "value": -21.3563},
      {"measurement": "sample/DMSO", "setting": "[2]; PopE-F10, 0.0823045 uM, biological replicate 1", "value": -49.1626},
      {"measurement": "sample/DMSO", "setting": "[2]; PopE-F10, 0.123457 uM, biological replicate 3", "value": -32.7771},
      {"measurement": "sample/DMSO", "setting": "[2]; PopE-F10, 0.15625 uM, biological replicate 2", "value": -19.0708},
      {"measurement": "sample/DMSO", "setting": "[2]; PopE-F10, 0.246914 uM, biological replicate 1", "value": -58.8177},
      {"measurement": "sample/DMSO", "setting": "[2]; PopE-F10, 0.3125 uM, biological replicate 2", "value": -21.7123},
      {"measurement": "sample/DMSO", "setting": "[2]; PopE-F10, 0.37037 uM, biological replicate 3", "value": -39.4309},
      {"measurement": "sample/DMSO", "setting": "[2]; PopE-F10, 0.625 uM, biological replicate 2", "value": -9.966},
      {"measurement": "sample/DMSO", "setting": "[2]; PopE-F10, 0.740741 uM, biological replicate 1", "value": -40.7882},
      {"measurement": "sample/DMSO", "setting": "[2]; PopE-F10, 1.11111 uM, biological replicate 3", "value": -43.6671},
      {"measurement": "sample/DMSO", "setting": "[2]; PopE-F10, 1.25 uM, biological replicate 2", "value": -1.293},
      {"measurement": "sample/DMSO", "setting": "[2]; PopE-F10, 2.22222 uM, biological replicate 1", "value": -40.4926},
      {"measurement": "sample/DMSO", "setting": "[2]; PopE-F10, 2.5 uM, biological replicate 2", "value": 7.269},
      {"measurement": "sample/DMSO", "setting": "[2]; PopE-F10, 3.33333 uM, biological replicate 3", "value": -37.5053},
      {"measurement": "sample/DMSO", "setting": "[2]; PopE-F10, 5 uM, biological replicate 2", "value": 28.3814},
      {"measurement": "sample/DMSO", "setting": "[2]; PopE-F10, 6.66667 uM, biological replicate 1", "value": -11.4286},
      {"measurement": "sample/DMSO", "setting": "[2]; PopE-F10, 10 uM, biological replicate 2", "value": 46.5155},
      {"measurement": "sample/DMSO", "setting": "[2]; PopE-F10, 10 uM, biological replicate 3", "value": 5.884},
      {"measurement": "sample/DMSO", "setting": "[2]; PopE-F10, 20 uM, biological replicate 1", "value": 42.9557},
      {"measurement": "sample/DMSO", "setting": "[2]; PopE-F10, 20 uM, biological replicate 2", "value": 83.0461},
      {"measurement": "Fold change compared to 3D7", "setting": "[2]; Supplementary Table 1, EC50 on PopE-F10 vs 3D7", "value": 1.4, "unit": "fold"}
    ]}
  ]
}
